The target of one data set is T1, D2 receptor (Rattus norvegicus, UniProt P61169).
T1 construct: 15μg/mL of striatal homogenate was incubated in triplicate; from tissue; host or cells: rat striatum homogenate
Description: Functional D2 receptor [35S]GTPγS assay (antagonist mode vs dopamine; basal for agonism).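 Note: [35S]GTPγS binding counted by scintillation after 60 min at 30 °C, nonspecific binding defined with 100 µM unlabeled GTPγS, inhibition curves fitted by one-site nonlinear regression.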 The following applies: against 40 µM dopamine, rat striatal homogenate; read-out: D2 receptor antagonistic activity IC50 (95% CI). The format is biochemical.

In the next data set the target is T2, 5-HT1A receptor (Rattus norvegicus, UniProt P19327).
T2 construct: 15 μg/mL of hippocampus homogenate was incubated in triplicate with 0.8 nM; from tissue; host or cells: rat hippocampus homogenate
T2 sequence (P19327 1-422): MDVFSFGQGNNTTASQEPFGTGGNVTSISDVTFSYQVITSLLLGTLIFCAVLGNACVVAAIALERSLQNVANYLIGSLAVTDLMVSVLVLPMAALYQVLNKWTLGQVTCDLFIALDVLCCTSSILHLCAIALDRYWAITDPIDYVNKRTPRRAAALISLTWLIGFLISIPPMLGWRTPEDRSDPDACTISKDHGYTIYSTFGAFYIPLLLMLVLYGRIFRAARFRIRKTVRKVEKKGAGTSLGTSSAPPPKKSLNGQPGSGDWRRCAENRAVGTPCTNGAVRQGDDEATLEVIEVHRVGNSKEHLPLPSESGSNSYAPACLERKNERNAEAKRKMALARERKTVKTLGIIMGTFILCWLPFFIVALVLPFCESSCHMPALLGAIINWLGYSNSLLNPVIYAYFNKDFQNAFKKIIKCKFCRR
As to the kind of experiment: Functional 5-HT1A receptor [35S]GTPγS assay (agonist mode).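 Note: male Sprague-Dawley rat hippocampal membranes incubated 90 min at 37 °C, bound label counted by scintillation after filtration, non-specific binding defined with 100 µM unlabeled GTPγS, one-site curve fit.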 The format is biochemical. The following applies: [35S]GTPγS, rat hippocampus homogenate.

The subject of data set [1] is 5-HT2A receptors (5-HT-induced contractions in the rat ileum). Description: 5-HT-evoked contractions of isolated rat ileum. To be noted: 5-HT 10^−5 M; compounds 10^−8–10^−5 M.
In data set [2] the test system is mice. Description: Chimney test (motor coordination). The format is in vivo, mouse. To be noted: 30 mg/kg i.p., 60 min before the test. As for the experimental part:
(§1) The experiments were carried out, in the Experimental Medicine Center of Medical University of Lublin, on six-week-old naive male Swiss mice, weighing 24–30 g. The mice were housed in cages, five individuals per cage in an environmentally controlled rooms (ambient temperature 22 ± 1 °C; relative humidity 50–60%; 12 h light/dark cycle, lights on at 8:00). Standard laboratory food(LSM-Agropol-Motycz, Lublin, Poland) and filtered water were available ad libitum. All the experimental procedures were carried out, according to the National Institute of Health Guidelines for the Care and Use of Laboratory Animals and to the European Community Council Directive for the Care and Use of Laboratory Animals of 22 September 2010 (2010/63/EU) and approved by the Local Ethics Committee for Animal Experimentation in Lublin. The investigated compounds (Norbo-4, Norbo-8, Norbo-10, Norbo-14, Norbo-18 and Norbo-20) in all tests were administered intraperitoneally (i.p.), dissolved in dimethyl sulfoxide (DMSO, final concentration of 0.1%) and then diluted by aqueous solution of 0.5% methylcellulose (tylose) and injected 60 min before the tests. […] All compounds were given in a volume of 10 mL/kg to mice. The control animals received an equivalent volume of the solvent at the respective time before the tests. All the experiments were conducted in the light phase between 09.00 a.m. and 14.00 p.m. The experiments were performed by an observer unaware of the treatment administered. The effects of investigated compounds on motor coordination were evaluated in the rota-rod and chimney tests. In the first test, motor impairments were measured, defined as the inability to keep balance on a rotating rod (at constant speed of 18 rpm) for 1 min. In the second test, motor impairments were assessed by mouse inability to climb up the tube backwards (3 cm in inner diameter, 25 cm long) within 60 s. Before the tests, the animals were trained once a day for 3 days. The animals able to stay on the rotating rod or to leave the chimney for 60 s were approved for experiments.

The test system of data set [3] is mice. Description: Spontaneous locomotor activity. It is filed as in vivo, mouse.
The target of the next data set is 5-HT2A receptor (Rattus norvegicus, UniProt P14842). As to the kind of experiment: 5-HT2A competition binding assay ([3H]ketanserin, frontal cortex homogenates).
5-HT2A receptor, sequence (P14842 whole entry): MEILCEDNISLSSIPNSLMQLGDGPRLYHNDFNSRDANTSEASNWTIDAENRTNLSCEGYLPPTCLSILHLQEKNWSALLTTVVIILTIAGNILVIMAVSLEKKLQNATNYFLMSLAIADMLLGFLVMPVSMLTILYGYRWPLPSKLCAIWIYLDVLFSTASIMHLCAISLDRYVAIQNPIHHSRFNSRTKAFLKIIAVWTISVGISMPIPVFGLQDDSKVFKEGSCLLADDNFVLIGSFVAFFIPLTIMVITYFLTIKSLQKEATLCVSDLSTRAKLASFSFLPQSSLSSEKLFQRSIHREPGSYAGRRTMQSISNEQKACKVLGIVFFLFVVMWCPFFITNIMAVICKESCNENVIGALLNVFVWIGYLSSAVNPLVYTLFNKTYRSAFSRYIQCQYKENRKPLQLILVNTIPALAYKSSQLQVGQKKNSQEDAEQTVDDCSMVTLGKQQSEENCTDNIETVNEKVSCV
Data set [4] deals with mice. As to the kind of experiment: Rota-rod test (motor coordination). It is filed as in vivo, mouse. The following applies: 30 mg/kg i.p., 60 min before the test. As for the experimental part:
as §1

In another data set the target is T3, human 5-HT2C receptor (Homo sapiens, UniProt P28335).
T3 sequence (P28335 33-458): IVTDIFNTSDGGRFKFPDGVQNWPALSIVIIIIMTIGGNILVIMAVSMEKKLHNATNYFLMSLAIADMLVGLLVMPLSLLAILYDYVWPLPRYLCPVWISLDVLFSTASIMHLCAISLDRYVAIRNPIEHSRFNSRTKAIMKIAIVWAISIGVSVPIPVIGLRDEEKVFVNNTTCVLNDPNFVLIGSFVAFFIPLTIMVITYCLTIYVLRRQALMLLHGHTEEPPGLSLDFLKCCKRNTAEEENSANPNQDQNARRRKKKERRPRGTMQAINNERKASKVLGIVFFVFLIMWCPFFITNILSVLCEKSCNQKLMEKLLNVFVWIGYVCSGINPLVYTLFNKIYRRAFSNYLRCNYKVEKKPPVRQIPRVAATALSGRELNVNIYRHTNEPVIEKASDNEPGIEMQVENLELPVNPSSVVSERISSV
Description: 5-HT2C competition binding assay ([3H]mesulergine, transfected cell membranes). The following applies: [3H]mesulergine, human 5-HT2C membranes; read-out: 5-HT2C Ki (95% CI).

Data set [5] relates to mice. As to the kind of experiment: Forced swim test (FST, Porsolt's test). It is filed as in vivo, mouse. The following applies: 15 mg/kg i.p., 60 min before the test. As for the experimental part: as §1, with “The experiment was carried out according to the method” for “The effects”, “of Porsolt et al.. Mice were individually placed in a glass cylinder (25 cm high; 10 cm in diameter) containing water maintained at 23–25 °C, and were left there for 6 min. The total duration of immobility was recorded during the last 4 min of a 6-min test session. A mouse was regarded as immobile when it remained floating” for “of investigated compounds”, “on” for “on motor coordination were evaluated in”, “the water, making only small movements” for “the rota-rod and chimney tests. In the first test, motor impairments were measured, defined as the inability”, “keep its head above” for “keep balance on a rotating rod (at constant speed of 18 rpm) for 1 min. In”, “the water.” for “the second test, motor impairments were assessed by mouse inability to climb up the tube backwards (3 cm in inner diameter, 25 cm long) within 60 s. Before the tests, the animals were trained once a day for 3 days. The animals able to stay on the rotating rod or to leave the chimney for 60 s were approved for experiments.”

The subject of data set [6] is mice. As to the kind of experiment: Elevated plus-maze test (EPM). It is filed as in vivo, mouse. The following applies: 5 mg/kg i.p., 60 min before the test. How it is done:
The experiments were carried out, in the Experimental Medicine Center of Medical University of Lublin, on six-week-old naive male Swiss mice, weighing 24–30 g. The mice were housed in cages, five individuals per cage in an environmentally controlled rooms (ambient temperature 22 ± 1 °C; relative humidity 50–60%; 12 h light/dark cycle, lights on at 8:00). Standard laboratory food(LSM-Agropol-Motycz, Lublin, Poland) and filtered water were available ad libitum. All the experimental procedures were carried out, according to the National Institute of Health Guidelines for the Care and Use of Laboratory Animals and to the European Community Council Directive for the Care and Use of Laboratory Animals of 22 September 2010 (2010/63/EU) and approved by the Local Ethics Committee for Animal Experimentation in Lublin. The investigated compounds (Norbo-4, Norbo-8, Norbo-10, Norbo-14, Norbo-18 and Norbo-20) in all tests were administered intraperitoneally (i.p.), dissolved in dimethyl sulfoxide (DMSO, final concentration of 0.1%) and then diluted by aqueous solution of 0.5% methylcellulose (tylose) and injected 60 min before the tests. […] All compounds were given in a volume of 10 mL/kg to mice. The control animals received an equivalent volume of the solvent at the respective time before the tests. All the experiments were conducted in the light phase between 09.00 a.m. and 14.00 p.m. The experiments were performed by an observer unaware of the treatment administered. The EPM studies were carried out on mice according to the method of Lister. The EPM apparatus was made of plexiglass and consisted of two open (30 × 5 cm) and two enclosed (30 × 5 × 15 cm) arms. The arms extended from a central platform of 5 × 5 cm. The apparatus was mounted on a plexiglass base, raising it 38.5 cm above the floor, and illuminated by a red light. The test consisted of placing a mouse in the center of the apparatus (facing an open arm) and allowing it to freely explore. The number of entries into the open arms and the time spent in these arms were scored for a 5 min test period. An entry was defined as placing all four paws within the boundaries of the arm. The following measures were obtained from the test: the total number of arm entries; the percentage of arm entries into the open arms; and the time spent in the open arms expressed as a percentage of the time spent in both the open and closed arms. Anxiolytic activity was indicated by increases in the time spent in open arms and in the number of open arm entries. The total number of entries into either type of arm was used additionally as a measure of overall motor activity.

Setting [7] is: 30 mg/kg i.p., after 6 min of observation.
Setting [8] is: 30 mg/kg i.p., after 20 min of observation.

“Also recorded” adds a separate entry of the source. Like-named read-outs stand apart in the source and are kept apart here.

T1 sequence (P61169 whole entry): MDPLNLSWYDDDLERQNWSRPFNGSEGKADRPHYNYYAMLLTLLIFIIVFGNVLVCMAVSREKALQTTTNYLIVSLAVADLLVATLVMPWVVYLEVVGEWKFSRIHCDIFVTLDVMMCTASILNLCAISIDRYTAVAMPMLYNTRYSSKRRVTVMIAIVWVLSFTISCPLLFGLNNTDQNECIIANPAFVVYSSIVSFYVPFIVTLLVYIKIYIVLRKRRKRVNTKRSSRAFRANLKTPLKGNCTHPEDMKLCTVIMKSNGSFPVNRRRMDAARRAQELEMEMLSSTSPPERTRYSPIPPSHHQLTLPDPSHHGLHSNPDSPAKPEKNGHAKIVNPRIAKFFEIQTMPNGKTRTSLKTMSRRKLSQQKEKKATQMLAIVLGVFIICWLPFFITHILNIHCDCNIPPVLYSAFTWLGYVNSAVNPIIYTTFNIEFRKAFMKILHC

`O=C(NCCCN1CCN(c2ccc(Cl)c(Cl)c2)CC1)C1CC2C=CC1C2` (stereo not drawn) [Norbo-14, endo-N-(3-(4-(3,4-dichlorophenyl)piperazin-1-yl)propyl)bicyclo[2.2.1]hept-5-ene-2-carboxamide]: the IC50 on D2 receptor was 41.1 µM. For the same compound, at 5-HT1A receptor (± SEM), the “5-HT1A Receptor G-Protein Stimulation pEC50” value was “no activity”. In data set [1], the “Emax, maximal inhibitory effect on 5-HT-induced contractions in the rat ileum” value was determined as 22.57%. Also, the time in chimney entry with mice [2] is “significant increase of time in chimney; also recorded: disturbed the behavior of mice”. Further, the spontaneous locomotor activity result is “significant decrease in locomotor activity” in the data set on mice [3] (15 mg/kg i.p., after 20 min of observation); “significant decrease in locomotor activity” in the data set on mice [3] (setting [7]); “significant decrease in locomotor activity” with mice [3] (setting [8]). In addition, the Ki is 0.0179 µM at 5-HT2A receptor (read-out: 5-HT2A Ki (95% CI)) and 3.64 µM on human 5-HT2C receptor. For the same compound, in the data set with mice [4], the time on rota-rod entry is on record as “decreased also time on rota-rod; also recorded: impaired motor coordination”.
For `O=C(NCCCN1CCN(c2ccc(F)cc2)CC1)C1CC2C=CC1C2` (stereo not drawn) [Norbo-18, endo.-N-(3-(4-(4-fluorophenyl)piperazin-1-yl)propyl)bicyclo[2.2.1]hept-5-ene-2-carboxamide], the IC50 at D2 receptor came out at 82.9 µM. Further, on 5-HT1A receptor, the “5-HT1A Receptor G-Protein Stimulation Emax (%) ± SEM” value is listed as 143 ± 5.1 ^&&& %. For the same compound, the EC50 at 5-HT1A receptor (read-out: 5-HT1A Receptor G-Protein Stimulation EC50 (95% CI)) stood at 2.32 µM. Further, the “immobility time in FST” value in the data set with mice [5] is given as “significant reduction in immobility time; also recorded: significant reduction of immobility time”. In addition, the “Emax, maximal inhibitory effect on 5-HT-induced contractions in the rat ileum” value in data set [1] was 25.28%. Further, in the data set on mice [2], the time in chimney result is given as “significant increase of time in chimney; also recorded: disturbed the behavior of mice”. Further, the spontaneous locomotor activity result with mice [3] (setting [7]) and with mice [3] (setting [8]) was “significant decrease in locomotor activity” throughout. Also, the Ki at 5-HT2A receptor (± SEM, read-out: 5-HT2A pKi (converted)) was 0.0186 µM; at human 5-HT2C receptor, 0.212 µM. In addition, the time on rota-rod entry in the data set on mice [4] is given as “decreased also time on rota-rod; also recorded: impaired motor coordination”.
`O=C1CC2(CCCC2)CC(=O)N1CCCCN1CCN(c2ncccn2)CC1` [buspirone, reference compound]: the “percentage of the open arm entries (EPM)” value in the data set with mice [6] is listed as “significant increase”; in the data set with mice [6] (listed as Buspirone), “increased the percentage of entries into the open arms”. Besides, the figures for the “percentage of time spent in open arms (EPM)” value with mice [6] and in the data set with mice [6] (listed as Buspirone) were “significant increase” and “prolonged the time”, respectively.
Consider `CN[C@H]1CC[C@@H](c2ccc(Cl)c(Cl)c2)c2ccccc21` [sertraline, reference compound], for which the “immobility time in FST” value in the data set on mice [5] was “significant reduction in the immobility time”; in the data set with mice [5] (listed as Sertraline), “significantly shortened the immobility time”.

(Values after PMC9572521, “Synthesis, Docking Studies and Pharmacological Evaluation of Serotoninergic Ligands Containing a 5-Norbornene-2-Carboxamide Nucleus” (Molecules, 2022).)
